Assay results taken from US9101638B2, “Boronic acid derivatives and therapeutic uses thereof” (Rempex Pharmaceuticals, Inc., priority 2013, dated 2015).
Where two headings read alike, the source gives them in different places.

Assays:
KP1005 (CTX-M-14) = test: Potentiation of aztreonam, strain KP1005; assay type: cell-based
ec308 (SHV-5) [1] = test: Potentiation of aztreonam, strain ec308; assay type: cell-based; conditions: minimum BLI concentration inhibiting growth with 4 μg/mL aztreonam
ec302 (TEM-10) = test: Potentiation of aztreonam, strain ec302; assay type: cell-based
KP1004 (K-2) = test: Potentiation of aztreonam, strain KP1004; assay type: cell-based; conditions: minimum BLI concentration inhibiting growth with 4 μg/mL aztreonam
ECL1002 = test: Potentiation of aztreonam, strain ECL1002; assay type: cell-based; conditions: minimum BLI concentration inhibiting growth with 4 μg/mL aztreonam
ec308 (SHV-5) [2] = test: Potentiation of tigemonam, strain ec308; assay type: cell-based; conditions: minimum BLI concentration inhibiting growth with 4 μg/mL tigemonam
SHV-12 = SHV-12 (Klebsiella pneumoniae, UniProt P0AD64, E235K/G234S/L31Q); test: Inhibition of nitrocefin cleavage by purified SHV-12; assay type: biochemical
Chain of SHV-12 (P0AD64 22-286 L31Q/G234S/E235K): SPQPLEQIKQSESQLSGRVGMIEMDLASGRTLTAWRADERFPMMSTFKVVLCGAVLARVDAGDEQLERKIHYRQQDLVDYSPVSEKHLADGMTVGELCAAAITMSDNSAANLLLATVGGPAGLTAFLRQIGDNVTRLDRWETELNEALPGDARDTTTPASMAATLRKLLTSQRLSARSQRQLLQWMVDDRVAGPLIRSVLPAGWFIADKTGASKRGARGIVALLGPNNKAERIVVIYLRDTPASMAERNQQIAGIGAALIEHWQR
In short: (§1)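 Purified enzyme was preincubated with a range of inhibitor concentrations in reaction buffer for 10 min at room temperature. Nitrocefin was then added and its cleavage followed at 490 nm every 10 sec for 10 min.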

KPC-2 = KPC-2 (Klebsiella pneumoniae, UniProt Q9F663); test: Inhibition of nitrocefin cleavage by purified KPC-2; assay type: biochemical; conditions: nitrocefin reporter substrate, purified enzyme; read-out: Ki (KPC-2, NCF)
Chain of KPC-2 (Q9F663 25-293, looked up, species assumed): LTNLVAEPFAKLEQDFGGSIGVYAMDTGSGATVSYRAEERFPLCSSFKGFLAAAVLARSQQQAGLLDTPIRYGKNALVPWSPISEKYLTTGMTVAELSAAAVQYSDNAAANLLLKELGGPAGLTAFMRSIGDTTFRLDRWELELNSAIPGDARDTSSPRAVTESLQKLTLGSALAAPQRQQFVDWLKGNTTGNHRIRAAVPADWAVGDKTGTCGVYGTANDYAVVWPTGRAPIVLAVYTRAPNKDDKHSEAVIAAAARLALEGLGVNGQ
In short: as §1

PAM1154/KPC-2 = test: Biapenem potentiation in PAM1154/KPC-2 (MexAB-OprM lacking); assay type: cell-based, Pseudomonas aeruginosa
Procedure: Efflux of BLIs from Pseudomonas aeruginosa by the MexAB-OprM efflux pump was also evaluated. […] Due to expression of KPC-2 both strains became resistant to biapenem. […] Potency of BLIs to potentiate biapenem in these strains was determined. […] The ratio of MPC64 values for each BLI in PAM1032/KPC-2 (efflux proficient) and PAM1154/KPC-2 (efflux deficient) was determined to generate the Efflux Index (EI).

Chymotrypsin = target: T1, Chymotrypsin (Bos taurus, UniProt P00766); test: Serine protease inhibition: chymotrypsin; assay type: biochemical, mammalian; conditions: Table 8A, class symbols; read-out: IC50 Chymotrypsin
T1 construct: purchased Calbiochem 230832
Procedure: (§2) The effect of selected BLIs on the enzymatic activity of some common mammalian serine proteases was evaluated.
(§3) 50 μl of the diluted enzyme was mixed with 50 μl of inhibitor at various concentrations and 50 μl of corresponding buffer (Table 7). Reaction mixtures were incubated for 10 min at 37° C. Subsequently, 50 μl of corresponding substrate (Table 7) was added and absorbance or fluorescence was monitored for 30 min on SpectraMax M2 plate reader (Molecular Devices). 4-(2-Aminoethyl)benzenesulfonyl fluoride hydrochloride (AEBSF) and leupeptin were used as positive controls. Rates of reaction were calculated and presented relative to “no treatment” control.

Thrombin = target: T2, Thrombin (Homo sapiens, UniProt P00734); test: Serine protease inhibition: thrombin; assay type: biochemical, mammalian; conditions: Table 8A, class symbols; read-out: IC50 Thrombin
T2 construct: Thrombin; MPBio; 19491880; purchased MPBio 19491880
In short: (§4)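 Enzyme + inhibitor (various concns), enzyme-specific buffer, 10 min, 37° C; add matching substrate; read absorbance/fluorescence 30 min. Rates vs no-treatment control. AEBSF, leupeptin as positive controls.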

Elastase = target: T3, Elastase (Sus scrofa, UniProt P00772); test: Serine protease inhibition: elastase; assay type: biochemical, mammalian; conditions: Table 8A, class symbols; read-out: IC50 Elastase
T3 construct: purchased Calbiochem 324682
T3 sequence (P00772 27-266): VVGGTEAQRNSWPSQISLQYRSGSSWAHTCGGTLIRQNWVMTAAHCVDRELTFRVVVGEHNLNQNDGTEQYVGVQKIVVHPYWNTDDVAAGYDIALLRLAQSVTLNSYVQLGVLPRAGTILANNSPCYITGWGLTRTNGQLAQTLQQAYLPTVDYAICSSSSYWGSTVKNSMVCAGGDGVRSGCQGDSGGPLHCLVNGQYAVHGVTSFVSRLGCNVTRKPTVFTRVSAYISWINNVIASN
Procedure: as §2, §3

Chymase = target: T4, Chymase (Homo sapiens, UniProt P23946); test: Serine protease inhibition: chymase; assay type: biochemical, mammalian; conditions: Table 8A, class symbols; read-out: IC50 Chymase
T4 construct: purchased Enzo Lifescience BML-SE281
T4 sequence (P23946 22-247): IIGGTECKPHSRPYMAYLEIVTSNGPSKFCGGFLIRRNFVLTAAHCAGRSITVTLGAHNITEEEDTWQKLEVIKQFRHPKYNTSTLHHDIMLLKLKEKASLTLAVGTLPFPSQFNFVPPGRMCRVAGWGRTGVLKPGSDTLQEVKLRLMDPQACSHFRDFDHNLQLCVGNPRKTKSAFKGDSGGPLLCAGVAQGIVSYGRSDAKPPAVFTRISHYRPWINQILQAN
In short: as §4

Neutrophil elastase = target: T5, Neutrophil elastase (Homo sapiens, UniProt P08246); test: Serine protease inhibition: neutrophil elastase; assay type: biochemical, mammalian; conditions: Table 8B; read-out: IC50 Neutrophil elastase
T5 construct: purchased Calbiochem 324681
T5 sequence (P08246 30-267): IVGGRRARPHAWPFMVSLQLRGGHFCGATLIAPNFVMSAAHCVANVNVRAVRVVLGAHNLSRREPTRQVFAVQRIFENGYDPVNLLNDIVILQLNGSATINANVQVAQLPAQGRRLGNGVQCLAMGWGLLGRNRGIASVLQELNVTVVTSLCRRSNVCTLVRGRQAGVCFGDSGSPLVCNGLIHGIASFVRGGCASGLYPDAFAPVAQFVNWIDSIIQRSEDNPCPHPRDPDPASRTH
In short: as §4

CathepsinA = target: T6, CathepsinA (Homo sapiens, UniProt P10619); test: Serine protease inhibition: cathepsin A; assay type: biochemical, mammalian; conditions: Table 8B; read-out: IC50 CathepsinA
T6 construct: purchased R&D Systems 1049-SE
T6 sequence (P10619 29-480): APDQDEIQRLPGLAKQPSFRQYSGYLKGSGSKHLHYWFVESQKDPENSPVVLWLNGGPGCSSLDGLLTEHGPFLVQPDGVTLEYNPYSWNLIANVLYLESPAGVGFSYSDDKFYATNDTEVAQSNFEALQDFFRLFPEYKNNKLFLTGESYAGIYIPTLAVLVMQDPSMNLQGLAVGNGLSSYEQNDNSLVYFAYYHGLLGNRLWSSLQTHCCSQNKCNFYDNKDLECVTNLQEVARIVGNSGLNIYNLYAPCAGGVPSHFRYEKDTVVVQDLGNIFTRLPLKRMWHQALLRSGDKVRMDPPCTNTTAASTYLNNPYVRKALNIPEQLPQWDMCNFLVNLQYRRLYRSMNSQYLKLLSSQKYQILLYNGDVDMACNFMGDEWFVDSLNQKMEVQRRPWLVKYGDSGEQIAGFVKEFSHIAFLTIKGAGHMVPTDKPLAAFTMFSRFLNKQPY
In short: as §4

[3] = target: T7, Dipeptidyl peptidase 7 (DPP7) (Homo sapiens, UniProt Q9UHL4); test: Serine protease inhibition: DPP7; assay type: biochemical, mammalian; conditions: Table 8B; read-out: IC50 DPP7
T7 construct: purchased R&D Systems 3438-SE
Procedure: as §2, §3

[4] = target: T8, Dipeptidyl peptidase 8 (DPP8) (Homo sapiens, UniProt Q6V1X1); test: Serine protease inhibition: DPP8; assay type: biochemical, mammalian; conditions: Table 8B; read-out: IC50 DPP8
T8 construct: purchased BPS Bioscience 80080
T8 sequence (Q6V1X1 whole entry): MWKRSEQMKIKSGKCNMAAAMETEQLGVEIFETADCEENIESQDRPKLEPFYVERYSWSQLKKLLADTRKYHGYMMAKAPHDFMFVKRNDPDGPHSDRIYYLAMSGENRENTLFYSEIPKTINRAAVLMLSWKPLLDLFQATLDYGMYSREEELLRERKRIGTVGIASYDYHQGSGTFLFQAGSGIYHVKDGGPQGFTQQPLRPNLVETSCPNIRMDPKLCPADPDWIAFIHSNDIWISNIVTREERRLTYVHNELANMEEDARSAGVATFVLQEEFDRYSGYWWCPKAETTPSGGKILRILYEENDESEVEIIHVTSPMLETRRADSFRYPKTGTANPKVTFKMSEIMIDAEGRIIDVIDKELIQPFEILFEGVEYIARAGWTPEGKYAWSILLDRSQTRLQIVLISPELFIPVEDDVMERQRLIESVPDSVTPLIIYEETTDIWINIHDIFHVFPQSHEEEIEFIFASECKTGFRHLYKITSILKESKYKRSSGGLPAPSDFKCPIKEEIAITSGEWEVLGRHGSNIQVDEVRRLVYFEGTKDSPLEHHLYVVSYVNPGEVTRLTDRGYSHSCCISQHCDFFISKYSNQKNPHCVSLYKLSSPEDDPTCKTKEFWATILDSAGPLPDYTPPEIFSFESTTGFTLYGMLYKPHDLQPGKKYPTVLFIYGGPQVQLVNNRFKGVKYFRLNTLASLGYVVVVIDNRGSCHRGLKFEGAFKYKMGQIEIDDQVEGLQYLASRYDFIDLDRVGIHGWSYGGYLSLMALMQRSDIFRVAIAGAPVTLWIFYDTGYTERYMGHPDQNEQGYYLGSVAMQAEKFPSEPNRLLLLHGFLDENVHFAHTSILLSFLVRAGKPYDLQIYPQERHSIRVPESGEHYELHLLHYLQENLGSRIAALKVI
Procedure: as §2, §3

[5] = nitrocefin reporter substrate, purified enzyme, read-out: Ki (SHV-12, NCF)

SMILES	AZT MPC4 CTX-M-14 KP1005 (KP1005 (CTX-M-14))	AZT MPC4 SHV-5 ec308 (ec308 (SHV-5) [1])	AZT MPC4 TEM-10 ec302 (ec302 (TEM-10))	AZT MPC4 K-2 KP1004 (KP1004 (K-2))	AZT MPC4 ECL1002 (ECL1002)	TIG MPC4 SHV-5 ec308 (ec308 (SHV-5) [2])	Ki (SHV-12; [5]) [µM]	Ki (KPC-2) [µM]	PAM1154/KPC-2 Biapenem MPC64 (PAM1154/KPC-2)	IC50 (Chymotrypsin) [µM]	IC50 (Thrombin) [µM]	IC50 (Elastase) [µM]	IC50 (Chymase) [µM]	IC50 (Neutrophil elastase) [µM]	IC50 (CathepsinA) [µM]	IC50 [3] [µM]	IC50 [4] [µM]	Ki (SHV-12) [µM]
O=C(CSC(F)F)N[C@H]1Cc2cccc(C(=O)O)c2OB1O [Compound 3, (R)-3-(2-(difluoromethylthio)acetamido)-2-hydroxy-3,4-dihydro-2H-benzo[e][1,2]oxaborinine-8-carboxylic acid]	X (key: X = MIC of less than 1 μg/mL; Y = MIC of 1 μg/mL to 10 μg/mL; Z = MIC of greater than 10 μg/mL)	X (X = MIC of less than 1 μg/mL)	Y (key: X = MIC of less than 1 μg/mL; Y = MIC of 1 μg/mL to 10 μg/mL; Z = MIC of greater than 10 μg/mL)	Y (Y = MIC of 1 μg/mL to 10 μg/mL)	Y (Y = MIC of 1 μg/mL to 10 μg/mL)	X (X = MIC of less than 1 μg/mL)	< 0.001	> 0.01	X (key: X = Less than 10; Y = 10 to 40; Z Greater than 40)	> 800	> 800	> 800	300 to 800	15 to 500	< 15	> 500	> 500	–
CSC(=O)N[C@H]1Cc2cccc(C(=O)O)c2OB1O [Compound 11, (R)-2-hydroxy-3-(methylthiocarbonylamino)-3,4-dihydro-2H-benzo[e][1,2]oxaborinine-8-carboxylic acid]	Y (key: X = MIC of less than 1 μg/mL; Y = MIC of 1 μg/mL to 10 μg/mL; Z = MIC of greater than 10 μg/mL)	X (X = MIC of less than 1 μg/mL)	Y (key: X = MIC of less than 1 μg/mL; Y = MIC of 1 μg/mL to 10 μg/mL; Z = MIC of greater than 10 μg/mL)	Y (Y = MIC of 1 μg/mL to 10 μg/mL)	Y (Y = MIC of 1 μg/mL to 10 μg/mL)	Y (Y = MIC of 1 μg/mL to 10 μg/mL)	–	> 0.01	X (key: X = Less than 10; Y = 10 to 40; Z Greater than 40)	> 800	> 800	> 800	> 800	> 500	15 to 500	> 500	> 500	< 0.001
Nc1nnc(SCC(=O)N[C@H]2Cc3cccc(C(=O)O)c3OB2O)s1 [Compound 5, (R)-3-(2-(5-amino-1,3,4-thiadiazol-2-ylthio)acetamido)-2-hydroxy-3,4-dihydro-2H-benzo[e][1,2]oxaborinine-8-carboxylic acid]	X (key: X = MIC of less than 1 μg/mL; Y = MIC of 1 μg/mL to 10 μg/mL; Z = MIC of greater than 10 μg/mL)	X (X = MIC of less than 1 μg/mL)	Y (key: X = MIC of less than 1 μg/mL; Y = MIC of 1 μg/mL to 10 μg/mL; Z = MIC of greater than 10 μg/mL)	Y (Y = MIC of 1 μg/mL to 10 μg/mL)	Y (Y = MIC of 1 μg/mL to 10 μg/mL)	Y (Y = MIC of 1 μg/mL to 10 μg/mL)	–	> 0.01	X (key: X = Less than 10; Y = 10 to 40; Z Greater than 40)	> 800	> 800	> 800	300 to 800	> 500	15 to 500	> 500	15 to 500	–
O=C(Cc1cccs1)N[C@H]1Cc2cccc(C(=O)O)c2OB1O [CPD A, reference compound]	Y (key: X = MIC of less than 1 μg/mL; Y = MIC of 1 μg/mL to 10 μg/mL; Z = MIC of greater than 10 μg/mL)	X (X = MIC of less than 1 μg/mL)	Y (key: X = MIC of less than 1 μg/mL; Y = MIC of 1 μg/mL to 10 μg/mL; Z = MIC of greater than 10 μg/mL)	Y (Y = MIC of 1 μg/mL to 10 μg/mL)	Y (Y = MIC of 1 μg/mL to 10 μg/mL)	Y (Y = MIC of 1 μg/mL to 10 μg/mL)	< 0.001	> 0.01	X (key: X = Less than 10; Y = 10 to 40; Z Greater than 40)	< 300	< 300	> 800	< 300	15 to 500	< 15	> 500	15 to 500	–
O=CN[C@H]1Cc2cccc(C(=O)O)c2OB1O [Compound 4, (R)-3-formamido-2-hydroxy-3,4-dihydro-2H-benzo[e][1,2]oxaborinine-8-carboxylic acid]	Y (key: X = MIC of less than 1 μg/mL; Y = MIC of 1 μg/mL to 10 μg/mL; Z = MIC of greater than 10 μg/mL)	Y (Y = MIC of 1 μg/mL to 10 μg/mL)	Y (key: X = MIC of less than 1 μg/mL; Y = MIC of 1 μg/mL to 10 μg/mL; Z = MIC of greater than 10 μg/mL)	X (X = MIC of less than 1 μg/mL)	Y (Y = MIC of 1 μg/mL to 10 μg/mL)	Y (Y = MIC of 1 μg/mL to 10 μg/mL)	0.001 to 0.01	–	X (key: X = Less than 10; Y = 10 to 40; Z Greater than 40)	> 800	> 800	> 800	> 800	> 500	> 500	> 500	> 500	–
